Laboratory results as given in ChEMBL document CHEMBL5291721, “A preclinical secondary pharmacology resource illuminates target-adverse drug reaction associations of marketed drugs” (Nat Commun, 2023).

What was measured:
Adenosine receptor A1 = target: T1, Adenosine receptor A1 (Homo sapiens, UniProt P30542)
T1 sequence (P30542 whole entry): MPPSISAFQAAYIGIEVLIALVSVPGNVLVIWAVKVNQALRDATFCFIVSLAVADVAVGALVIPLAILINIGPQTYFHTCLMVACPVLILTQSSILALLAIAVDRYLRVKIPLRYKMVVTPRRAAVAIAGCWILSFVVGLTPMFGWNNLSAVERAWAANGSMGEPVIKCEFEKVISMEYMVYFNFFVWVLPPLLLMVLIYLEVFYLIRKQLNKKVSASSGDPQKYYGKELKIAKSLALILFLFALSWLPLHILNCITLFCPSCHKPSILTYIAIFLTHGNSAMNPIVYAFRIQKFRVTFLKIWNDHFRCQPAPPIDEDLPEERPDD

[1] = target: T2, Alpha-1A adrenergic receptor (Homo sapiens, UniProt P35348); assay type: functional, cell-based
T2 sequence (P35348 whole entry): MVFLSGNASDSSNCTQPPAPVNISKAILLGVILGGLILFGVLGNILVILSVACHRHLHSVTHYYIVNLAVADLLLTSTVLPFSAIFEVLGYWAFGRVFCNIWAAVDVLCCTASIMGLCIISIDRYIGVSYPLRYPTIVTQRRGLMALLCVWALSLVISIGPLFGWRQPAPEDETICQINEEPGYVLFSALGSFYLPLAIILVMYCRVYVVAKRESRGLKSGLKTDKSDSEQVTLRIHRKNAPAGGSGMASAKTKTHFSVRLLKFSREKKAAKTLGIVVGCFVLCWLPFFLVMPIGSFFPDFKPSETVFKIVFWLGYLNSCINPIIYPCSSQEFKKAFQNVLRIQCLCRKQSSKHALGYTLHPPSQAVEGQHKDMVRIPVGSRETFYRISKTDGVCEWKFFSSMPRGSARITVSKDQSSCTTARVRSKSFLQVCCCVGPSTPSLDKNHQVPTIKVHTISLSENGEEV

[2] = target: T3, Type-1 angiotensin II receptor (Homo sapiens, UniProt P30556)
T3 sequence (P30556 whole entry): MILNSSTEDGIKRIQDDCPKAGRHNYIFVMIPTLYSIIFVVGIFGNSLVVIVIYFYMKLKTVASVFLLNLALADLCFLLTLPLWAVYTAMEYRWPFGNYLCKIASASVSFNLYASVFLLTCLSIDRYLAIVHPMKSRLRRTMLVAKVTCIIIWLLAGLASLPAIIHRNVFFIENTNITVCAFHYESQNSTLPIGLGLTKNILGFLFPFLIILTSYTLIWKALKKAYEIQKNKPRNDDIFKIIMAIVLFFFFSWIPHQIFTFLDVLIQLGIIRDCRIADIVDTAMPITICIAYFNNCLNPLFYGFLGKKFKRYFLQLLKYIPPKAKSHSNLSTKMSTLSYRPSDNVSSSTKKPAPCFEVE

[3] = target: Gamma-aminobutyric acid receptor subunit alpha-1 (Rattus norvegicus, UniProt P62813)
[4] = target: Growth hormone secretagogue receptor type 1 (Homo sapiens, UniProt Q92847)
[5] = target: 5-hydroxytryptamine receptor 2B (Homo sapiens, UniProt P41595); assay type: functional, cell-based
Melanocortin receptor 4 = Melanocortin receptor 4 (Homo sapiens, UniProt P32245)
[6] = target: Kappa-type opioid receptor (Homo sapiens, UniProt P41145)
Mu-type opioid receptor = Mu-type opioid receptor (Homo sapiens, UniProt P35372)
[7] = target: T2, Alpha-1A adrenergic receptor; assay type: functional, cell-based; remark: listed apart in the source
[8] = target: Muscarinic acetylcholine receptor M3 (Homo sapiens, UniProt P20309)
Note: assay procedure not described here.

Gamma-aminobutyric acid receptor subunit alpha-1, sequence (P62813 whole entry): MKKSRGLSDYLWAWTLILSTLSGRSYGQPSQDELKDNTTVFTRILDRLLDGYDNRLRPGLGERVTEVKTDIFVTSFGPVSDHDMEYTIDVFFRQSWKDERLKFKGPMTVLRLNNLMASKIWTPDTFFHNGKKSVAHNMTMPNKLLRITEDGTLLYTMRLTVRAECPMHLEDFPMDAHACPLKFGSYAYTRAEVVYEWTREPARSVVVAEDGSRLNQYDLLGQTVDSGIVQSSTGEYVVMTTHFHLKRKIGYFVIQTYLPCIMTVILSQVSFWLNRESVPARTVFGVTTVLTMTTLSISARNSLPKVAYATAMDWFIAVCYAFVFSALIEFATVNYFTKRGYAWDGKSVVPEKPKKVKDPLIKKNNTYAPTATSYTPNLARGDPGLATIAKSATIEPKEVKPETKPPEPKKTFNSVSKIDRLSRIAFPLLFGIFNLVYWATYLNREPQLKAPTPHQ
Growth hormone secretagogue receptor type 1, sequence (Q92847 whole entry): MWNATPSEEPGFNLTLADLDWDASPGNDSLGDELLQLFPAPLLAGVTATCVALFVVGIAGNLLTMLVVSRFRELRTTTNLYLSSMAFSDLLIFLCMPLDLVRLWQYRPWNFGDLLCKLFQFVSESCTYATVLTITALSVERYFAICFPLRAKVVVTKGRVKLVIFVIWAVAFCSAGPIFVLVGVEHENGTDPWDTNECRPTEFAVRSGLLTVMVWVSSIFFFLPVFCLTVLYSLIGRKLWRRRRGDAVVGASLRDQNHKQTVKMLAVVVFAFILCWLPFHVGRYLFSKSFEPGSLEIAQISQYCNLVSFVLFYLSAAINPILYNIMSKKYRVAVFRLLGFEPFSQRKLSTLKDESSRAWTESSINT
5-hydroxytryptamine receptor 2B, sequence (P41595 whole entry): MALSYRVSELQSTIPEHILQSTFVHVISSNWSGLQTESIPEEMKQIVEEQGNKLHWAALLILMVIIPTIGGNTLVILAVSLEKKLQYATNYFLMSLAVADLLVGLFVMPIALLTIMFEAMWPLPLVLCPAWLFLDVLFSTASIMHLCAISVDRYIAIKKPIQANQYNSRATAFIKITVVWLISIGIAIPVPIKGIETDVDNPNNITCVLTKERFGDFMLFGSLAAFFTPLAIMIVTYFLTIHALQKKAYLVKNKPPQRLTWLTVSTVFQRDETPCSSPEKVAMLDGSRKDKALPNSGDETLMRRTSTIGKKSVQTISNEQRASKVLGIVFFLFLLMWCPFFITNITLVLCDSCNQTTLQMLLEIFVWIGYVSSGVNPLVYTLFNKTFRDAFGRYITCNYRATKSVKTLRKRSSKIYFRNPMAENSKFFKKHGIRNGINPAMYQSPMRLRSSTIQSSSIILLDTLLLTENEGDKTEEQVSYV
Mu-type opioid receptor, sequence (P35372 whole entry): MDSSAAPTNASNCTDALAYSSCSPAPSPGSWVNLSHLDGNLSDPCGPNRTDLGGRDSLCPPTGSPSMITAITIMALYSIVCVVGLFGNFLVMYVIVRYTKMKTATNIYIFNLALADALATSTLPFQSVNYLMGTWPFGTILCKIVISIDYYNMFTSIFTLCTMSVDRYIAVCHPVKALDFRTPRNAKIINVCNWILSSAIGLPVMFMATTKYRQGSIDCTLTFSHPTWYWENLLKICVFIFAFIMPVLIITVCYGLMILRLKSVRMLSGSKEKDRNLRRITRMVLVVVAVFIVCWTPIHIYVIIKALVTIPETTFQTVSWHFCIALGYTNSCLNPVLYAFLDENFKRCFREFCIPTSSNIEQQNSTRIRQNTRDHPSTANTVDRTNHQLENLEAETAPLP
Kappa-type opioid receptor, sequence (P41145 whole entry): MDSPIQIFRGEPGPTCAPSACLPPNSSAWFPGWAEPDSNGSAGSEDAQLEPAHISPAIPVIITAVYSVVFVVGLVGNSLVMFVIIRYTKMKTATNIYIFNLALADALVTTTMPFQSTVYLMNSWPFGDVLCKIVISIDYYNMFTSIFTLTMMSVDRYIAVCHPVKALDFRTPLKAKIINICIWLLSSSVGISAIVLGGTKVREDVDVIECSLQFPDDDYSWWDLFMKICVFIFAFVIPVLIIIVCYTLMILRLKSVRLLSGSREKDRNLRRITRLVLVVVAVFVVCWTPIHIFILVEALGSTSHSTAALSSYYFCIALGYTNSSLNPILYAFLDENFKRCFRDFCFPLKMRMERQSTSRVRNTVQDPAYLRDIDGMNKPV
Muscarinic acetylcholine receptor M3, sequence (P20309 whole entry): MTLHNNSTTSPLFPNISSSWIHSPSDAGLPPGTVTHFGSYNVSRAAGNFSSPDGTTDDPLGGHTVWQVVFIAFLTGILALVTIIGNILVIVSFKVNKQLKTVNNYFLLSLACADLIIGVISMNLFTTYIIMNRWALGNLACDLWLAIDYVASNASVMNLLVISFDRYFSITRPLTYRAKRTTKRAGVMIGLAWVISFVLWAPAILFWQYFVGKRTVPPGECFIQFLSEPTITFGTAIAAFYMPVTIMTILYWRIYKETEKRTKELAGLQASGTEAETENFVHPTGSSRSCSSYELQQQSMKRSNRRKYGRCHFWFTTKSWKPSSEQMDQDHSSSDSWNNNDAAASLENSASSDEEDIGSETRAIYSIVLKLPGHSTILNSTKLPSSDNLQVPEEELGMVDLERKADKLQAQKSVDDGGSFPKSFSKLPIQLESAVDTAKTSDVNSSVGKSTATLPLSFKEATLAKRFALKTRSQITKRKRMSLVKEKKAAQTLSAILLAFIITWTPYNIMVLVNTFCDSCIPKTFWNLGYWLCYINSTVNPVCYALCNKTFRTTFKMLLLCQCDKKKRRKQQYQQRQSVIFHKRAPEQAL
Melanocortin receptor 4, sequence (P32245 whole entry): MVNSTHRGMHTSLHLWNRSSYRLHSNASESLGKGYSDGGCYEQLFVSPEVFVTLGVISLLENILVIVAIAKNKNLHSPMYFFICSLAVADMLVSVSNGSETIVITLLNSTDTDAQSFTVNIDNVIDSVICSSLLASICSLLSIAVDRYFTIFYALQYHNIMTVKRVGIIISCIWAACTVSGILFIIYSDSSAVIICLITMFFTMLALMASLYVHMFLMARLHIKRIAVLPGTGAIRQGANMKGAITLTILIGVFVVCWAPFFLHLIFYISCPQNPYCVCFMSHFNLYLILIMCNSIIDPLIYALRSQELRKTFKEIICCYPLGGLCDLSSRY

| SMILES | AC50 (Adenosine receptor A1) | AC50 [1] | AC50 [2] | AC50 [3] | AC50 [4] | AC50 [5] | AC50 (Melanocortin receptor 4) | AC50 [6] | AC50 (Mu-type opioid receptor) | AC50 [7] | AC50 [8] |
| --- | --- | --- | --- | --- | --- | --- | --- | --- | --- | --- | --- |
| C[N+](C)(C)CCOC(N)=O [CARBAMOYLCHOLINE] | > 10 µM | > 30 µM | > 10 µM | > 10 µM | > 10 µM | > 30 µM | > 10 µM | > 10 µM | > 30 µM | > 30 µM |  |
| CN(C)CCCN1c2ccccc2Sc2ccccc21 [PROMAZINE] | > 30 µM | > 30 µM | > 10 µM | > 10 µM | > 30 µM | > 10 µM | > 30 µM | 1.99 µM | 6.5 µM | 0.141 µM |  |
| N[C@@H](CSCC(=O)O)C(=O)O [CARBOCYSTEINE] | > 30 µM | > 30 µM | > 30 µM | > 30 µM | > 30 µM | > 30 µM |  | > 30 µM |  | > 30 µM | > 30 µM |
| Nc1ccc(/N=N/c2ccccc2)c(N)n1 [PHENAZOPYRIDINE] |  | > 30 µM |  | > 30 µM |  | > 30 µM |  | 3.3 µM |  | > 30 µM | 3.6 µM |
| CN(CCCN1c2ccccc2CCc2ccccc21)CC(=O)c1ccc(Cl)cc1 [LOFEPRAMINE] | > 30 µM | > 30 µM | > 30 µM | > 30 µM | 25 µM | > 30 µM |  | 4.8 µM |  | 4.4 µM |  |
| NS(=O)(=O)c1cc(Cl)c(Cl)c(S(N)(=O)=O)c1 [DICHLORPHENAMIDE] | > 10 µM | > 30 µM | > 10 µM | > 10 µM | > 10 µM | > 10 µM | > 10 µM | > 10 µM | > 30 µM | > 30 µM | > 30 µM |
| CC(=O)N[C@H]1[C@H]([C@H](O)[C@H](O)CO)OC(C(=O)O)=C[C@@H]1N=C(N)N [ZANAMIVIR] | > 30 µM |  | > 30 µM | > 10 µM | > 30 µM | > 30 µM | > 30 µM | > 10 µM | > 30 µM |  | > 30 µM |
| C[N+](C)(C)CC(=O)O [BETAINE] | > 30 µM | > 30 µM | > 30 µM | > 30 µM | > 30 µM | > 30 µM |  |  |  | > 30 µM | > 30 µM |
| CC(=O)N(CC(O)CO)c1c(I)c(C(=O)NCC(O)CO)c(I)c(C(=O)NCC(O)CO)c1I (stereo not given) [IOHEXOL] | > 30 µM | > 30 µM | > 30 µM | > 10 µM | > 30 µM | > 10 µM | > 30 µM | > 10 µM | > 30 µM | > 30 µM | > 30 µM |
| CN(C/C=C/c1ccccc1)Cc1cccc2ccccc12 [NAFTIFINE] | > 30 µM | > 30 µM | > 30 µM | > 10 µM | > 30 µM | > 10 µM | > 30 µM | 10.6 µM | > 30 µM | > 30 µM | > 30 µM |
| O=C(O)c1cccc(-c2noc(-c3ccccc3F)n2)c1 |  |  |  |  |  |  |  |  | > 30 µM |  |  |
| NS(=O)(=O)c1cc(-c2nnn[nH]2)c(NCc2cccs2)cc1Cl [AZOSEMIDE] | > 30 µM | > 30 µM | > 30 µM | > 30 µM | > 30 µM | > 30 µM |  | > 30 µM |  | > 30 µM | > 30 µM |
| C=C1C[C@@H]2[C@H](CC[C@]3(C)C(=O)CC[C@@H]23)[C@@]2(C)C=CC(=O)C=C12 [EXEMESTANE] | > 30 µM | > 30 µM | > 30 µM | > 10 µM | > 30 µM | > 10 µM | > 30 µM | 2.41 µM | > 30 µM | > 30 µM | > 30 µM |
| CCCC(=O)N1CCCN(c2nc(N)c3cc(OC)c(OC)cc3n2)CC1 [BUNAZOSIN] | > 30 µM | > 30 µM | > 30 µM | > 30 µM | > 30 µM | > 30 µM |  | > 30 µM |  |  | > 30 µM |
| O=C(O)CCn1c2c(c3ccccc31)C[C@H](NS(=O)(=O)c1ccc(F)cc1)CC2 [RAMATROBAN] | > 30 µM |  | > 30 µM | > 10 µM | > 30 µM | > 10 µM | > 30 µM | > 10 µM | > 30 µM |  | > 30 µM |
| NS(=O)(=O)c1cc2c(cc1Cl)NC(CC1CCCC1)NS2(=O)=O (stereo not given) [CYCLOPENTHIAZIDE] |  | > 30 µM |  | > 30 µM |  | > 30 µM |  | > 30 µM |  | > 30 µM | > 30 µM |
| CO/N=C(\C(=O)N[C@@H]1C(=O)N2C(C(=O)OCOC(=O)C(C)(C)C)=C(C)CS[C@H]12)c1csc(N)n1 |  | > 30 µM |  | > 30 µM |  | > 30 µM |  | > 30 µM |  | > 30 µM | > 30 µM |
| CC(C)NCC1CCc2cc(CO)c([N+](=O)[O-])cc2N1 (stereo not given) [OXAMNIQUINE] | > 10 µM | > 30 µM | > 10 µM | > 10 µM | > 10 µM | > 10 µM | > 10 µM | 13.4 µM | > 30 µM | > 30 µM | > 30 µM |
| CC(=O)O[C@]1(C(C)=O)CC[C@H]2[C@@H]3C[C@H](C)C4=CC(=O)CC[C@]4(C)[C@H]3CC[C@@]21C [MEDROXYPROGESTERONE ACETATE] | > 30 µM |  | > 30 µM |  | > 30 µM |  |  |  |  |  |  |
| O=P(O)(O)C(O)(Cc1cccnc1)P(=O)(O)O [RISEDRONIC ACID] | > 30 µM | > 30 µM | > 30 µM | > 30 µM | > 30 µM | > 30 µM | > 30 µM | > 30 µM | > 30 µM | > 30 µM |  |
| CC(C(O)c1ccc(O)cc1)N1CCC(Cc2ccccc2)CC1 (stereo not given) [IFENPRODIL] | > 30 µM | > 30 µM | > 30 µM | > 30 µM | > 30 µM | > 30 µM |  | 1 µM |  | 0.45 µM | > 30 µM |
| COCC1=C(C(=O)OC(C)OC(=O)OC(C)C)N2C(=O)[C@@H](NC(=O)/C(=N\OC)c3csc(N)n3)[C@H]2SC1 (stereo not given in full) [CEFPODOXIME PROXETIL] |  | > 30 µM |  | > 30 µM |  | > 30 µM |  | > 30 µM |  | > 30 µM | > 30 µM |
| O=C1CCC(N2C(=O)c3ccccc3C2=O)C(=O)N1 (stereo not given) [THALIDOMIDE] | > 30 µM | > 30 µM | > 30 µM | > 10 µM | > 30 µM | > 10 µM | > 30 µM | > 10 µM | > 30 µM | > 30 µM |  |
| O=C(Cn1ccnc1[N+](=O)[O-])NCc1ccccc1 [BENZNIDAZOLE] | > 30 µM | > 30 µM | > 30 µM | > 30 µM | > 30 µM | > 30 µM |  | 21 µM |  | > 30 µM | > 30 µM |
| CN(C)[C@@H]1C(O)=C(C(N)=O)C(=O)[C@@]2(O)C(O)=C3C(=O)c4c(O)ccc(Cl)c4[C@@H](O)[C@H]3C[C@@H]12 [DEMECLOCYCLINE] | > 10 µM |  | > 10 µM | > 10 µM | > 10 µM | > 10 µM | > 10 µM | > 10 µM | > 30 µM |  | > 30 µM |
